These results are taken from paper PMC8467576, “Novel Ubiquitin Specific Protease-13 Inhibitors Alleviate Neurodegenerative Pathology” (Metabolites, 2021).

Data set [1] deals with SH-SY5Y human neuroblastoma cells. Kind of data set: LDH and MTT cell viability assays. The note with it: 5 h; for concentration near and above which cell viability decreased: compared to DMSO or untreated controls; for cell toxicity: range of concentrations studied (0.001 µM to 1 mM). Format: cell-based. The method, then: BK50118-B and BK50118-C (Figure 2C,D) decreased cell viability near and above 100 μM compared to DMSO or untreated controls. CL3-499 (Figure 2G) decreased cell viability near and above 1 mM compared to DMSO or untreated controls.
(§1) SH-SY5Y cells were transiently transfected for 24 h with human wild-type α-synuclein using Fugene HD transfection reagent (Promega, E2311, Madison, WI, USA) according to manufacturer’s protocol. Cells were treated with 1 mM, 0.1 mM, 0.01 mM, 1 µM, 0.1 µM, 0.01 µM and 0.001 µM of each novel compounds (BK50118-A, BK50118-B, BK50118-C, CL3-499, CL3-512 and CL3-514) dissolved in DMSO for 5 h. Cells were then harvested on ice by removing culture medium and adding 0.2 mL 1x sodium-tris, EDTA, NP-40 (STEN) buffer (50 mM Tris (pH 7.6), 150 mM NaCl, 2 mM EDTA, 0.2 % NP-40, 0.2 % with Halt protease and phosphatase inhibitor solution (ThermoFisher, 78446). Cells were detached with a cell scraper and collected into centrifuge tubes and incubated at 4 °C for 30 min with agitation. Samples were stored at −80 °C and used for ELISA analyses. For cell viability assay, SHSY-5Y cells stably expressing human wild-type alpha-synuclein were treated with 1 mM, 0.1 mM, 0.01 mM, 1 µM, 0.1 µM, 0.01 µM and 0.001 µM of each novel compound (BK50118-A, BK50118-B, BK50118-C, CL3-499, CL3-512 and CL3-514) dissolved in DMSO for 5 h. Cell viability was determined via lactate dehydrogenase assay on culture media (Thermofisher, 88954) and MTT assay on plated cells (Thermofisher, V13154).
On the technique in general: Tetrazolium assays rely on reduction of a dye to a coloured formazan, in cell work by metabolically active cells.

Data set [2] addresses T1, USP13 (Homo sapiens, UniProt Q92995).
T1 construct: ELISA for USP13 (MyBioSource, Cat # MBS9335287, San Diego, CA, USA); endogenous in cells; host or cells: human SH-SY5Y neuroblastoma cells transfected with human wild-type alpha-synuclein
T1 sequence (Q92995 1-863): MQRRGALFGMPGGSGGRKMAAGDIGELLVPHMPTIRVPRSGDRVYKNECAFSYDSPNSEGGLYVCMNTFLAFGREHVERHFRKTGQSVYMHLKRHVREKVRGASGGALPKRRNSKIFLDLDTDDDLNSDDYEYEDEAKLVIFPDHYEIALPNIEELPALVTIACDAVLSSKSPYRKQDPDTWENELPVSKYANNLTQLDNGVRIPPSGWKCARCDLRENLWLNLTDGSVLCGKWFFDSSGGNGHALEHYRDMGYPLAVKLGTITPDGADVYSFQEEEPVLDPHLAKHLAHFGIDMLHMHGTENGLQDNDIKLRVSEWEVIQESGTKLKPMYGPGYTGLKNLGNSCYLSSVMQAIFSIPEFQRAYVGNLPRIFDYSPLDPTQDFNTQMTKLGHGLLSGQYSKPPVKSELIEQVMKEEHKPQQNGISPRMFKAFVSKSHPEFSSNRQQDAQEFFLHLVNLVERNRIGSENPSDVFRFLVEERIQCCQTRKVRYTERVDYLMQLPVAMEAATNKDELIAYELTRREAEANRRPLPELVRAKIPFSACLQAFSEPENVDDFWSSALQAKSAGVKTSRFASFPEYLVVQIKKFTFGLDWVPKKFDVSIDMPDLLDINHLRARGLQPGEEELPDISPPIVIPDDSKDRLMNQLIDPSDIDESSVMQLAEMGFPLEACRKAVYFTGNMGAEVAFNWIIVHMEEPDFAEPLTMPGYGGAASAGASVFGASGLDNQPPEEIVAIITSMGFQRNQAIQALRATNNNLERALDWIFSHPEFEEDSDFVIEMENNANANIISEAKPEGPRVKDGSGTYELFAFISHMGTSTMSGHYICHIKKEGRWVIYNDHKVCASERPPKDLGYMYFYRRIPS
Kind of data set: USP13 activity via functional ELISA in alpha-synuclein transfected SH-SY5Y cells. Format: cell-based. The following applies: SH-SY5Y cells transfected with human alpha-synuclein, 5 h, read-out: Estimated IC50 to USP13. Here is the method:
Stably transfected human neuroblastoma SH-SY5Y cells with human wild-type alpha-synuclein were treated with 1 mM, 100 µM, 10 µM, 1 µM, 0.1 µM, 0.01 µM and 0.001 µM of each of BK50118-A, BK50118-B, BK50118-C, CL3-499, CL3-512 and CL3-514 dissolved in an equivalent volume of DMSO for 5 h. […] The other 5 compounds were also able to lower alpha-synuclein levels but with less potency (Figure 3H,I,K–M).
as §1
The ELISA for USP13 (MyBioSource, Cat # MBS9335287, San Diego, CA, USA), Human alpha-synuclein (Biolegend, Cat # 844101, San Diego, CA, USA) and specific p-Tau ser396 (Invitrogen, KHB7031, Waltham, MA, USA) were performed on cell or brain tissue extracts as described above according to manufacturers’ protocol.
All statistical analyses were performed using GraphPad Prism version 5.0 (GraphPad software, Inc, San Diego, CA, USA). Two-tailed student’s t-test was used in comparison of means of two groups. Ordinary one-way analysis of variance (ANOVA) followed by Newman–Keuls or Dunnett comparison post hoc tests were used in comparison of means of multiple groups. Asterisks denote actual p-value significances (* < 0.05, ** < 0.01, *** < 0.001 and **** < 0.0001), and N is the number of animals or the number of independent experiments (cell culture) per group. Unless otherwise indicated, data are expressed as Mean ± SD. IC50 to USP13 levels was also estimated using GraphPad Prism version 5.0 (GraphPad software, Inc, San Diego, CA, USA).

Data set [3] deals with USP13. Details: method as in PMID 21962518. The following applies: cited from earlier work.
On the set-up of data set [4]: method as in PMID 21962518. The note with it: cited from earlier work.
For a further data set, the system named is USP10. Set-up: method as in PMID 21962518. The following applies: cited from earlier work.

Usually IC50 stands for the point on the concentration scale where inhibition reaches its midpoint. For `Fc1ccc2nccc(NCc3ccccc3)c2c1` [CL3-499, N-benzyl-6-fluoroquinolin-4-amine], the “concentration near and above which cell viability decreased” value in data set [1] was no less than 1000 µM. At USP13 [2], the IC50 was 0.29 nM.
The matching figures for `c1ccc(Nc2ccnc3ccsc23)cc1` [BK50118-A, N-phenylthieno[3,2-b]pyridin-7-amine]: no less than 0.1 µM and 0.11 nM.
Consider `COC(=O)[C@H](Cc1ccccc1)Nc1c([N+](=O)[O-])c(=O)oc2ccccc12` [CL3-512, (S)-methyl (3-nitro-2-oxo-2H-chromen-4-yl)-phenylalaninate], for which the cell toxicity result in data set [1] was “did not show cell toxicity”. In addition, on USP13 [2], the IC50 is 0.27 nM.
In the case of `Fc1ccc(CNc2ncnc3ccc(F)cc23)cc1` [Spautin-1], the IC50 in the data set on USP13 [3] and in the data set on USP10 was 600 to 700 nM throughout. The “blood-brain barrier (BBB) penetration” value in data set [4] is recorded as “does not cross the blood–brain barrier (BBB)”.
`COC(=O)[C@H](Cc1ccc(O)cc1)Nc1c([N+](=O)[O-])c(=O)oc2ccccc12` [CL3-514, (S)-methyl (3-nitro-2-oxo-2H-chromen-4-yl)-tyrosinate]: in data set [1], the cell toxicity entry was “did not show cell toxicity”. In addition, the IC50 at USP13 [2] is 0.61 nM.
As to `Fc1ccc2nccc(Nc3ccccc3)c2c1` [BK50118-B, 6-fluoro-N-phenylquinolin-4-amine], in data set [1], the “concentration near and above which cell viability decreased” value was no less than 100 µM. Also, on USP13 [2], the IC50 was 2.13 nM.
